Patent publication US7803825B2, “Aminoalkylazole derivatives as histamine-3 antagonists” (Wyeth LLC, priority 2007, dated 2010)
Where a name gives a salt, the structure may show the parent alone.

target: T1, histamine-3 (H3) receptor (Homo sapiens, UniProt Q9Y5N1); assay: Methyl Histamine Binding in Human Histamine-3 Receptor Cell Line; details: membranes of stably transfected HEK293T cells, radioligand 1 nM, Ki from IC50 by Cheng-Prusoff
T1 construct: expressed in transfected cells; host or cells: HEK293T
T1 sequence (Q9Y5N1 whole entry): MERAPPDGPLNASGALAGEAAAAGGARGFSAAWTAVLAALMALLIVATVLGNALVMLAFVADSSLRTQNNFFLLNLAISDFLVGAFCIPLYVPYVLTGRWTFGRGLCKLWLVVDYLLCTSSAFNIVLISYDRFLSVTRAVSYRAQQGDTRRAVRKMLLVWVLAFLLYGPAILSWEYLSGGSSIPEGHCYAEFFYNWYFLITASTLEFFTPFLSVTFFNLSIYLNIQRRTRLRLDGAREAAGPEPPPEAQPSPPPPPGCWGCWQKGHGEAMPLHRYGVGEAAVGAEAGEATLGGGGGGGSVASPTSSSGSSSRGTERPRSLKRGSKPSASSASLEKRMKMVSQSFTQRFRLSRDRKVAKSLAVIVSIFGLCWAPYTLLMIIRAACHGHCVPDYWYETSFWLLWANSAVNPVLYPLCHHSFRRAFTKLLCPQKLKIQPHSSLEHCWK
Protocol: Evaluation of Methyl Histamine Binding in Human Histamine-3 Receptor Cell Line
The affinity of test compounds for the histamine-3 (H3) receptor is evaluated in the following manner. Stably transfected HEK293T cells are grown in DMEM containing 10% heat inactivated FBS and G-418 (500 ug/ml). Cells are scraped from the plate, transferred to centrifuge tubes, washed one time in PBS by centrifugation in a Sorvall RT7 Plus centrifuge (2000 rpm 10 minutes, 4° C.). The resulting pellets are stored at 80° C. until ready for use. Cells are re-suspended in buffer (50 mM Tris pH=7.5) and placed in a Dounce homogenizer, douncing ten times to homogenize cells. The homogenate is spun down by centrifugation (Sorvall RT7 Plus, 1800 rpm 10 minutes, 4° C.). The supernatant is placed in a Corex tube and spun down by centrifugation (Sorvall RC 5c Plus, 17,000 rpm 20 minutes, 4° C.). The pellet is resuspended in buffer (50 mM Tris, pH 7.5). Protein concentration (ug/ul) is determined using the Micro-BCA Protein Determination. The binding assay is set up in a 96 well microtiter plate in a total volume of 250 uL. Non-specific binding is determined in the presence of 10 uM clobenpropit. The final radioligand concentration is 1 nM. The test compound is serially diluted using the Beckman Biomek2000 to a final approximate range of 100 uM to 100 pM. Membranes are suspended in buffer, homogenized in 2 bursts of ten seconds using a Vitris mechanical homogenizer set at power setting 5. Ten μg of membranes are added to each well. Following a one hour incubation at 30° C., the reaction is terminated by the addition of ice cold buffer and rapid filtration with a Packard Filtermate Harvester through a GF/B filter pre-soaked with 1% PEI for one hour. The plate is dried for one hour at 37° C. and 60 μL Microscint Scintillant is added to each well. The CPM per well is measured on a Packard Top Count NXT. Ki values are determined in nM. The Ki is calculated from the IC50 (i.e. the concentration of competing ligand which displaces 50% of the specific binding of the radioligand). CPM values are expressed as % specific binding and plotted vs compound concentration. A curve is fitted using a four-parameter logistic fit and the IC50 value is determined. The Ki is calculated from this using the Cheng-Prusoff equation: […]=IC50/1+(L/Kd) where L=concentration of free radioligand used in the assay, and Kd is the dissociation constant of the radioligand for the receptor. L is determined for each experiment by counting an aliquot of the diluted radioligand (corresponding to that added to each well) and the Kd has previously been determined under identical conditions for this cell line/radioligand.

Row | Ki [nM] | SMILES
1 | ≤ 10 | c1ccc(-c2nc3ccccc3n2Cc2ccc(-c3nc(CN4CCCCC4)co3)cc2)cc1 [Example 123, 2-phenyl-1-{4-[4-(piperidin-1-ylmethyl)-1,3-oxazol-2-yl]benzyl}-1H-benzimidazole]
2 | ≤ 10 | C[C@H]1CCCN1Cc1cnc(-c2ccc(Cn3cnc4ccccc43)cc2)n1C [Example 140, (5)-1-(4-(1-methyl-5-((2-methylpyrrolidin-1-yl)methyl)-1H-imidazol-2-yl)benzyl)-1H-benzo[d]imidazole fumarate salt]
3 | > 100 | Cn1c(CN2CCCC2)cnc1-c1ccc(F)cc1 [Example 145, 2-(4-Fluoro-phenyl)-1-methyl-5-pyrrolidin-1-ylmethyl-1H-imidazole fumarate salt]

More lines, now with the values behind:

Row | SMILES | Ki [nM]
4 | Cn1c(CN2CCCC2)cnc1-c1ccc(Cn2cnc3ccccc32)cc1 [Example 139, 1-[4-(1-Methyl-5-pyrrolidin-1-ylmethyl-1H-imidazol-2-yl)-benzyl]-1H-benzoimidazole fumarate salt] | 50.1 to 100
5 | Cn1c(CN2CCCC2)cnc1-c1ccccc1 [Example 143, 1-Methyl-2-phenyl-5-pyrrolidin-1-ylmethyl-1H-imidazole fumarate salt] | > 100
6 | Cn1c(CN2CCCC2)cnc1-c1ccc(C#N)cc1 [Example 144, 4-(1-Methyl-5-pyrrolidin-1-ylmethyl-1H-imidazol-2-yl)-benzonitrile fumarate salt] | > 100
7 | Cn1c(CN2CCCC2)cnc1-c1ccc(-c2ccccc2)cc1 [Example 146, 2-Biphenyl-4-yl-1-methyl-5-pyrrolidin-1-ylmethyl-1H-imidazole fumarate salt] | > 100
8 | Cn1c(CN2CCCC2)cnc1-c1ccc(-n2cnc3ccccc32)cc1 [Example 151, 1-[4-(1-Methyl-5-pyrrolidin-1-ylmethyl-1H-imidazol-2-yl)-phenyl]-1H-benzoimidazole fumarate salt] | ≤ 10
